The test system of data set [1] is zebrafish heart muscle. As to the kind of experiment: Zebrafish heart rate and amplitude of heart muscle contraction. The format is in vivo, zebrafish (Danio rerio). As to conditions: 20 μM, within three hours, 6 dpf zebrafish. The method, then:
(§1) For the fast escape response experiments, 6 dpf larvae were placed in 50 μl drops on a plastic plate. They were treated with 0, 2, 5, 10 or 20 μM of neurelaxin-A. To evoke C-start response, acoustic stimuli were applied according to the following protocol: 10 taps were carried out with 1 minute intervals every hour for 4 hours. The force of tapping was standardized. Images were recorded with Ximea Camera (MQ003MG-CM) at 500 fps for 2 s. Data were analyzed by Flote software version 2.1 and maximal angular velocity parameters of C-start reflex were quantified. For the experiments investigating the effect of the inhibitor on the heart muscle of zebrafish, 6 dpf larvae were embedded in 1% agarose and kept in E3 in the presence of 20 μM neurelaxin-A. Videos were taken by a camera at 15.1 fps before and after inhibitor treatment every hour for 3 hours.
Transgenic Tg(−8.0cldnb:lynEGFP)^zf106 (cldnb:gfp) (Haas, P. & Gilmour, D., Developmental Cell 10, 2006, pp 673-680) zebrafish (Danio rerio) were maintained in the animal facility of Eötvös Loránd University. For the experiments investigating the skeletal and heart muscle of zebrafish, 6 dpf embryos were used. […]
Heart beating and the amplitude of heart muscle contraction were monitored before and after the addition of 20 μM of neurelaxin-A to the zebrafish, imaging the same embryos every hour for three hours.

Data set [2] concerns Mauthner axon of zebrafish embryos. Nature of the data set: Mauthner axon regeneration after photoablation. The format is in vivo. As to conditions: 3 dpf zebrafish embryos. From the text: The Mauthner neuron is a giant neuron in the hindbrain of zebrafish embryos, which is a widely used model for studying regeneration. The Mauthner axon of 3 dpf zebrafish embryos was photoablated with two-photon irradiation at 800 nm.

Data set [3] deals with neurons. As to the kind of experiment: Oxidative stress resistance (H2O2) of neurons. The format is cell-based. As to conditions: 30 μM H2O2. The method, then:
Hydrogen Peroxide (H2O2) is used for generating reactive oxygen species and consequently, leading to oxidative stress and neuronal loss.
In this experiment, the neurons were first incubated with 30 μM of H2O2 or not (witness sample). Then, the neurons were treated with DMSO solutions with or without Neurelaxin-A.

Data set [4] relates to HeLa Kyoto H2B-mCherry eGFP-α-tubulin cells. As to the kind of experiment: Inhibition of cytokinesis / cell growth of HeLa cells. Format: cell-based, human. The note with it: 25 μM, 3rd day. Here is the method: For cell growth assays, HeLa Kyoto H2B-mCherry eGFP-α-tubulin cells were grown on an eight-chambered Lab-Tek borosilicate cover glass system, with the initial cell concentration of 100,000 cells/ml. As soon as the cells attached to the surface, they were treated with 0, 2, 5, 10, 25 or 50 μM concentrations of neurelaxin-A. Cells were grown for three days in the presence of the indicated inhibitor concentrations and cell numbers were quantified each day. The final vol/vol % of DMSO in all experiments was 0.1. Data analysis was carried out by Fiji software. On the third day of the experiment, multinuclear cells were visualized by using a Zeiss LSM 710 with a Plan Apo 20×/0.8 objective.
Another important phenotypic effect of non-muscle myosin 2 inhibition is the blocking of cytokinesis and consequently, the increasing number of multinucleated cells and the relatively low total cell number in human cancer cell cultures (Straight et al. Science, 2003, 299 (5613), pp 1743-1747). Therefore, the ratio of multinuclear cells and total cell number of HeLa cells was measured in time at different concentrations of neurelaxin-A (FIGS. 3F and 3G).
Cells incubated in different concentrations of the inhibitors were counted on each day for three days. […] In parallel with this phenomenon, the ratio of multinuclear cells increased with increasing inhibitor concentration.

The nature of data set [5]: Fluorescence emission spectrum. The note with it: 5 μM, λexc=350 nm, assay buffer 0.1% DMSO. The format is physicochemical. Here is the method: Fluorescence emission spectra (λexc=350 nm) were recorded in assay buffer containing 0.1% DMSO applying the inhibitors at 5 μM concentrations. The photoconversion measurements were carried out using 5 μM neurelaxin-A in assay buffer and irradiating the samples at 480±10 nm for 0, 5, 10 and 15 minutes using a Fluorescence Spectrometer (F900, Edinburgh Instruments) equipped with a 450 W Xenon Lamp. Their absorbance spectra were measured at each time point.
Fluorescence emission spectra (λexc.=350 nm) were recorded in assay buffer containing 0.1% DMSO comprising the inhibitor at 5 μM concentration.

The test system of data set [6] is zebrafish skeletal muscle. As to the kind of experiment: Zebrafish fast escape response (C-start), maximal angular velocity. Format: in vivo, zebrafish (Danio rerio). The note with it: 6 dpf zebrafish. Here is the method: as §1
Transgenic Tg(−8.0cldnb:lynEGFP)^zf106 (cldnb:gfp) (Haas, P. & Gilmour, D., Developmental Cell 10, 2006, pp 673-680) zebrafish (Danio rerio) were maintained in the animal facility of Eötvös Loránd University. […]
The relative rate of in vivo skeletal muscle contraction was quantified based on the velocity of the rotating heads of the animals have been quantified (maximal angular velocity) in the absence and in the presence of neurelaxin-A (2 μM), monitored for 4 hours.

Data set [7] relates to embryonic rat hippocampal neurons. Nature of the data set: Cannabinoid (WIN55,212-2)-induced growth cone retraction. Format: cell-based. As to conditions: 100 μM pre-treatment, WIN55,212-2 100 nM. Here is the method: Embryonic rat hippocampal neurons were isolated from 18-day-old embryo and cultured on poly-D-lysine coated dish in Neurobasal medium complemented with B27, FBS and glutamax for 6 days and transfected by using Lipofectamine 2000 with DNA codig for LifeAct-mCherry and CB1R-CFP.
The growth of neurites were monitored by fluorescent miscroscopy after the addition of different pre-treatment doses of neurelaxin-A at 20 minutes, followed 20 minutes later by the addition of 100 nM of the synthetic cannabinoid WIN55,212-2 as described in Roland et al, 2014.

Data set [8] in a line: Water solubility and solution stability in assay buffer. Format: physicochemical. The note with it: for solution stability at saturation concentration: 0.1 or 1 vol/vol % DMSO in assay buffer; for solubility: pH 7.3, aqueous buffer, kinetic from dmso stock, read-out: saturation concentration (solubility). Here is the method: The solubility and the solution stability of neurelaxin-A, were measured in 0.1 and 1 vol/vol % DMSO at room temperature.
500 μM inhibitor solutions were prepared in assay buffer (40 mM NaCl, 4 mM MgCl2, 20 mM HEPES pH 7.3) containing 0.1 or 1 vol/vol % DMSO.
After 0, 5, 25, 60 and 240 minutes, the samples were centrifuged for 1 minute. Absorption spectra of the supernatants were recorded and the concentrations of the dissolved inhibitors were determined using the extinction coefficient ε^o427=6860 M^−1cm^−1 (FIG. 2A).

In data set [9] the test system is zebrafish embryos. As to the kind of experiment: Zebrafish embryo toxicity test. The format is in vivo, zebrafish (Danio rerio). Here is the method: Transgenic Tg(−8.0cldnb:lynEGFP)^zf106 (cldnb:gfp) (Haas, P. & Gilmour, D., Developmental Cell 10, 2006, pp 673-680) zebrafish (Danio rerio) were maintained in the animal facility of Eötvös Loránd University. For the experiments investigating the skeletal and heart muscle of zebrafish, 6 dpf embryos were used. For cytotoxicity assays, 2 dpf embryos were dechorionated and placed in E3 medium (5 mM NaCl, 0.33 mM MgCl2, 0.33 mM CaCl2 and 0.17 mM KCl) complemented with the inhibitor in the indicated concentrations.578 PCT
In order to test the cytoxicity of neurelaxin-A in a live animal model, zebrafish embryos were treated with the inhibitor at different concentrations and their development was followed for 72 hours (FIG. 4d).

These results are taken from patent publication US10858357B2, “Water-soluble myosin 2 inhibitors for the treatment of neurological, neuropathic or psychiatric diseases” (PARIS SCIENCES ET LETTRES-QUARTIER LATIN, priority 2016, dated 2020).

≈ marks a conversion by molar mass, not a printed value. Like-named read-outs stand apart in the source and are kept apart here. Some results are limits rather than exact numbers.

For orientation: EC50 means the midpoint of the concentration-response curve. Turning to `Cc1ccc2c(c1)C(=O)C1(O)CCN(c3ccc(N)cc3)C1=N2` (centres unmarked) [Neurelaxin-A, 1-(4-aminophenyl)-3a-hydroxy-6-methyl-3,3a-dihydro-1H-pyrrolo[2,3-b]quinolin-4(2H)-one], in [1], the “amplitude of heart muscle contraction” value was “dropped drastically”. In addition, the “maximum rate of axon growth” value in data set [2] is on record as 0.6 um/min. The “time after treatment at which axon regrowth is induced” value in [2] turned out to be 1 h. Further, the “time of treatment at which maximum rate of growth is reached” value in data set [2] came out at 2 h. In data set [2] (spontaneous regrowth normally after 30 hours), the “start of axon regrowth post-ablation” value was 19 h. In addition, the “neuronal survival and axon maintenance under oxidative stress” value in data set [3] is “increased”. For the same compound, the “effect on cytokinesis / cell number” value in data set [4] was “completely inhibited cytokinesis”. Besides, the fluorescence signal entry in data set [5] is reported as “no fluorescence signal”. Also, the “time of half inhibition of maximal angular velocity” value in [6] (2 μM) worked out at 3.2 h. For the same compound, the EC50 in data set [6] (Danio rerio, C-start, monitored for 4 hours, read-out: EC50 for the inhibition of the maximal angular velocity) was less than 2 µM. Further, in [7], the “cannabinoid-induced retraction of axonal growth cones” value was “significantly prevented”. Further, the figures for the “solution stability at saturation concentration” value in [8] and in [8] (listed as neurelaxin-A) were “remained constant for 4 hours” and “stable for several days”, respectively. The solubility in data set [8] (assay buffer with 0.1 vol/vol % DMSO, 0.1 vol/vol % DMSO in assay buffer pH 7.3, room temperature) was approximately 298 µM (≈ 91.6 µg/mL); in [8] (assay buffer with 1 vol/vol % DMSO, 1 vol/vol % DMSO in assay buffer pH 7.3, room temperature), approximately 426 µM (≈ 131 µg/mL). Moreover, the “visible damage in zebrafish embryos” value in data set [9] (72 hours) was “does not cause any visible damage”. Further, the “signs of cytotoxicity in zebrafish embryos” value in data set [9] (after 40 hours, even at high concentrations) is “did not show any signs of cytotoxicity”.
